The source of these data is patent publication US11040027B2, “Protein kinase inhibitors for promoting liver regeneration or reducing or preventing hepatocyte death” (HEPAREGENIX GMBH, priority 2017, dated 2021).

Some results are limits rather than exact numbers.

One experiment concerns the target T1, MEKK2 (Homo sapiens, UniProt Q9Y2U5).
T1 construct: purchased ProQinase 0583-0000-1
T1 sequence (Q9Y2U5 1-619): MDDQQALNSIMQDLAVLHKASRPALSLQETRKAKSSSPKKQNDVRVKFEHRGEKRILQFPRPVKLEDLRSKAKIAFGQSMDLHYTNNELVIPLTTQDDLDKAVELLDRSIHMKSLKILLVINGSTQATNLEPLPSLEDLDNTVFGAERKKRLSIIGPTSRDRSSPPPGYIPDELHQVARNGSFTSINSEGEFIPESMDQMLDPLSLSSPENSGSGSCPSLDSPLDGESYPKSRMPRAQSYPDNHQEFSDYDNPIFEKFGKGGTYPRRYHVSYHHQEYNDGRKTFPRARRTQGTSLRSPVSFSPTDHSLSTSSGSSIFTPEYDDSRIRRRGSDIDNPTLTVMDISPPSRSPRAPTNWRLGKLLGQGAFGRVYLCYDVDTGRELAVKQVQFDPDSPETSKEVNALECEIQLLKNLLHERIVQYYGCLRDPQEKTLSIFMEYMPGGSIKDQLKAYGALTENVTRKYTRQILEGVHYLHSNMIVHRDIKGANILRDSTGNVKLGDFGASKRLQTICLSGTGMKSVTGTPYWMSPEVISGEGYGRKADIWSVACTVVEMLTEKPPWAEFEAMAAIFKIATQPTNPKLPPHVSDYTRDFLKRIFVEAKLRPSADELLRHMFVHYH
Nature of the experiment: Radiometric protein kinase assay, MEKK2. In kind it is biochemical. As to conditions: substrate Casein, ATP 0.2 μM; read-out: MEKK2 (potency derived from IC50-values). On the procedure:
(§1) A radiometric protein kinase assay was used for measuring the kinase activity of the respective protein kinases. All kinase assays were performed in 96-well polypropylene plates. After the reactions were stopped, the assay mixtures were transferred to 96-well MSFC filter-plates (Millipore). The reaction mix was passed through the filter membrane by aspiration, the membrane was washed 3 times with 150 mM H3PO4, once with ethanol, dried and liquid scintillation cocktail was added. Radioactivity was determined by counting of the samples in a Microbeta multiwell scintillation counter (Wallac).
(§2) b) Single Kinases • 20 μl standard assay buffer • 5 μl compound in 10% DMSO • 20 μl enzyme-substrate mix • 10 μl of substrate solution
(§3) The reaction cocktails were incubated at 30° C. for 30 minutes.

Another experiment has as its target T2, MKK4 active (Homo sapiens, UniProt P45985).
T2 construct: purchased ProQinase 0948-0000-1
T2 sequence (P45985 1-399): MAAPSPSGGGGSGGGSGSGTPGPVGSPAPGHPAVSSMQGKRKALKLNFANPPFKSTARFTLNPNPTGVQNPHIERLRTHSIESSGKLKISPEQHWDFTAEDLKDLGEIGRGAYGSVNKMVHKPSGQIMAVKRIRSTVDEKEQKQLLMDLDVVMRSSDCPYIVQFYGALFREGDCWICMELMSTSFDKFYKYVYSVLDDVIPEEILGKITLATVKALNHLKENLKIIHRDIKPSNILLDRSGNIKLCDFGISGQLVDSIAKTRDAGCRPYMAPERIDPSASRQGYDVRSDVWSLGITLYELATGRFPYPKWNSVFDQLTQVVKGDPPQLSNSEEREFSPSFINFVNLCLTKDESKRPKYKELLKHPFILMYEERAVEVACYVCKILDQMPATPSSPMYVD
The experiment in a line: Radiometric protein kinase assay, MKK4 active. The class given is biochemical. Conditions: substrate JNK1 KRKR, ATP 0.2 μM, read-out: MKK4 (potency derived from IC50-values). On the procedure:
as §1, §2, §3

For another experiment, the target named is BRaf (Homo sapiens, UniProt P15056). The experiment in a line: KINOMEscan competition binding assay, selectivity BRaf versus MKK4. As to conditions: Test conc. 0.1 μM; ratio of percent of control; N/E* per footnote. The procedure:
The assay was performed by combining three components: DNA-tagged kinase; immobilized ligand; and a test compound. The ability of the test compound to compete with the immobilized ligand was measured via quantitative PCR of the DNA tag. The technology is described in detail in Fabian, M. A. et al. A small molecule-kinase interaction map for clinical kinase inhibitors. Nat. […] Nat.
The test compounds were provided as 10 mM stock solutions. The test solutions at indicated final concentrations were prepared at DiscoverX.

The next experiment addresses T3, MKK4 (Homo sapiens, UniProt P45985).
T3 sequence (P45985 84-399): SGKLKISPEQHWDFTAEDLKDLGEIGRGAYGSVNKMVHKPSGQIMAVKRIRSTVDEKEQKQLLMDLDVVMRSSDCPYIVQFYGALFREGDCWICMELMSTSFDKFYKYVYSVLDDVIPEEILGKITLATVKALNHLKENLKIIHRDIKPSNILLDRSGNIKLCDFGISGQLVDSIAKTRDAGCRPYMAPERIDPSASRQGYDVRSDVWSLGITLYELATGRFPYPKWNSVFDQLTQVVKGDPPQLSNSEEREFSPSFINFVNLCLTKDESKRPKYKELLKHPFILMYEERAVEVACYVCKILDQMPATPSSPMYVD
The experiment in a line: KINOMEscan competition binding assay, MKK4. Conditions: read-out: Potency MKK4 (derived from % of control values, PoC).

Another experiment deals with JNK1 (Homo sapiens, UniProt P45983). Nature of the experiment: KINOMEscan competition binding assay, selectivity JNK1 versus MKK4. Conditions: Test conc 0.1 μM; ratio of percent of control; N/E* = PoC for JNK1 = 100.
The next experiment deals with T4, MKK7 (Homo sapiens, UniProt O14733).
T4 sequence (O14733 1-419): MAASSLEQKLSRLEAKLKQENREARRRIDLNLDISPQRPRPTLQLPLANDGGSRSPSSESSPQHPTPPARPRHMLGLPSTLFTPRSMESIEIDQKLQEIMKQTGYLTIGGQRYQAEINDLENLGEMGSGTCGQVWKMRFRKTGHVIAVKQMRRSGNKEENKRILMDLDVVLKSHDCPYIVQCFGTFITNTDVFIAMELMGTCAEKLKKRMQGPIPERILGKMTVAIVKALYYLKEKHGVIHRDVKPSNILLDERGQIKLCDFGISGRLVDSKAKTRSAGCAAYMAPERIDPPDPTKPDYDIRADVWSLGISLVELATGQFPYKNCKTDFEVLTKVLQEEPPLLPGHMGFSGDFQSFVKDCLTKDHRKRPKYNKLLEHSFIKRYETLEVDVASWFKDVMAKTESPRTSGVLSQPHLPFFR
Nature of the experiment: KINOMEscan competition binding assay, selectivity MKK7 versus MKK4. As to conditions: Test conc. 0.1 μM; ratio of percent of control; N/E* per footnote.

Sequence of JNK1 (P45983 1-384 isoform P45983-2): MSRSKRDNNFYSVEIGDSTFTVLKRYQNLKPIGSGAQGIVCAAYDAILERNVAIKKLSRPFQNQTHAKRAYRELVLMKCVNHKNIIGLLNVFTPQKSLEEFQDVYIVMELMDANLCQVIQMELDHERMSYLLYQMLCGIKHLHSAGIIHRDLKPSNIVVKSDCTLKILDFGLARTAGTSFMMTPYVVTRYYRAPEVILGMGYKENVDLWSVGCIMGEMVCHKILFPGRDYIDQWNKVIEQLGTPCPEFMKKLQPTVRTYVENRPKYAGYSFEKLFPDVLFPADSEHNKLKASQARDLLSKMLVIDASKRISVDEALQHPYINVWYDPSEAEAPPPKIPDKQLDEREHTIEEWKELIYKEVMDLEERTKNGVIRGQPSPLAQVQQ
Sequence of BRaf (P15056 whole entry): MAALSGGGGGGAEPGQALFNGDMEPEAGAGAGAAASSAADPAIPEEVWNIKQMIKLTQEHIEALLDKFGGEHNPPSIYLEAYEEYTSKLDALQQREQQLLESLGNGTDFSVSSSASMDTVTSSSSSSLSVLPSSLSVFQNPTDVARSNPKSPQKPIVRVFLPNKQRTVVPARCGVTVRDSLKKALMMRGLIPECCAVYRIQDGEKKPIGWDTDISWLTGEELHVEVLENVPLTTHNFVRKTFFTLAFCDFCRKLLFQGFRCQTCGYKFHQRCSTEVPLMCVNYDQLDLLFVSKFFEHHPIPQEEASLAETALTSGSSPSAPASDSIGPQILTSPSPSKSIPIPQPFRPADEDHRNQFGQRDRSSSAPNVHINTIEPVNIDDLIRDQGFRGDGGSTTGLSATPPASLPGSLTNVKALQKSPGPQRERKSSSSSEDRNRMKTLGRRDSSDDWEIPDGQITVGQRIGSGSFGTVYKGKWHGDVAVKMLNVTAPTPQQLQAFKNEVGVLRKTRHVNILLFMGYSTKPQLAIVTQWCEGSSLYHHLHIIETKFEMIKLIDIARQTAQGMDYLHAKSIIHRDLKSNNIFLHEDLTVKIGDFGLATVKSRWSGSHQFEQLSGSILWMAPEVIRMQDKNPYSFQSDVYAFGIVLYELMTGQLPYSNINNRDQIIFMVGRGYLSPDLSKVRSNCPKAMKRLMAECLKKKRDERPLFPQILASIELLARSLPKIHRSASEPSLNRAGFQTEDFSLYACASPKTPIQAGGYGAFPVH
Experimental for JNK1: For investigation of the affinity to MKK4, MKK7 and JNK1, the kinases were produced in HEK-293 cells and subsequently tagged with DNA for qPCR detection. […] The liganded beads were blocked with excess biotin and washed with blocking buffer (SEABLOCK™ (Pierce), 1% BSA, 0.05% TWEEN®20, 1 mM DTT) to remove unbound ligand and to reduce nonspecific binding. […] All reactions were performed in polystyrene 96-well plates in a final volume of 0.135 mL. […] The kinase concentration in the eluates was measured by qPCR.

As to `CCCS(=O)(=O)Nc1ccc(F)c(C(=O)c2c[nH]c3ncc(-c4cccc(N)c4)cc23)c1F` [Example 19, N-(3-(5-(3-Aminophenyl)-1H-pyrrolo[2,3-b]pyridine-3-carbonyl)-2,4-difluorophenyl)propane-1-sulfonamide], on MEKK2, the IC50 fell in the range of 1 to 10 µM.
For `COCCS(=O)(=O)Nc1ccc(F)c(C(=O)c2c[nH]c3ncc(-c4ccc(Cl)cc4)cc23)c1F` [Example 32, N-(3-(5-(4-Chlorophenyl)-1H-pyrrolo[2,3-b]pyridine-3-carbonyl)-2,4-difluorophenyl)-2-methoxyethane-1-sulfonamide], the IC50 on MEKK2 is greater than 10 µM.
With `CCCS(=O)(=O)Nc1ccc(F)c(C(=O)c2c[nH]c3ncc(-c4ccc(OC)cc4Cl)cc23)c1F` [Example 39, N-(3-(5-(2-Chloro-4-methoxyphenyl)-1H-pyrrolo[2,3-b]pyridine-3-carbonyl)-2,4-difluorophenyl)propane-1-sulfonamide], on MEKK2, the IC50 lay within 1 to 10 µM.
`CCCS(=O)(=O)Nc1ccc(F)c(C(=O)c2c[nH]c3ncc(-c4ccc(Cl)cc4)cc23)c1Cl` [Example 86, N-(2-chloro-3-(5-(4-chlorophenyl)-1H-pyrrolo[2,3-b]pyridine-3-carbonyl)-4-fluorophenyl)propane-1-sulfonamide]: the IC50 on MKK4 active is 1 to 10 µM; on MEKK2, greater than 10 µM.
With `CCCOc1ccc(-c2cnc3[nH]cc(C(=O)c4c(F)ccc(NS(=O)(=O)CCC)c4F)c3c2)c(Cl)c1` [Example 97, N-(3-(5-(2-chloro-4-propoxy-phenyl)-1H-pyrrolo[2,3-b]pyridine-3-carbonyl)-2,4-difluorophenyl)-propane-1-sulfonamide], the “Selectivity BRaf/MKK4” value on BRaf came to 6.5. Also, the remaining binding at 0.1 µM on MKK4 is 10 to 30%. In addition, the “Selectivity JNK1/MKK4” value on JNK1 is 8.6. Also, on MKK7, the “Selectivity MKK7/MKK4” value is listed as “N/E* (PoC for JNK1 = 100)”.
Regarding `CCCS(=O)(=O)Nc1ccc(F)c(C(=O)c2c[nH]c3ncc(-c4ccc(OCCOC)cc4Cl)cc23)c1F` [Example 98, N-(3-(5-(2-chloro-4-(2-methoxy-ethoxy)phenyl)-1H-pyrrolo[2,3-b]pyridine-3-carbonyl)-2,4-difluorophenyl)propane-1-sulfonamide], the “Selectivity BRaf/MKK4” value at BRaf was found to be 8.4. In addition, the remaining binding at 0.1 µM at MKK4 was less than 10%. The “Selectivity JNK1/MKK4” value at JNK1 is 16. Also, the “Selectivity MKK7/MKK4” value on MKK7 is 20.
The like results for `CCCS(=O)(=O)Nc1ccc(F)c(C(=O)c2c[nH]c3ncc(-c4ccc(OC5CCCC5)cc4Cl)cc23)c1F` [Example 99, N-(3-(5-(2-chloro-4-(cyclopentyl-oxy)phenyl)-1H-pyrrolo[2,3-b]pyridine-3-carbonyl)-2,4-difluorophenyl)propane-1-sulfonamide] were, in that order, 1.9, greater than 30%, 2.0 and 2.0.
For the molecule `CCCS(=O)(=O)Nc1ccc(F)c(C(=O)c2c[nH]c3ncc(-c4ccc(OCC5CC5)cc4Cl)cc23)c1F` [Example 100, N-(3-(5-(2-chloro-4-(cyclopropyl-methoxy)phenyl)-1H-pyrrolo[2,3-b]pyridine-3-carbonyl)-2,4-difluorophenyl)propane-1-sulfonamide], at BRaf, the “Selectivity BRaf/MKK4” value is reported as 17. Besides, the remaining binding at 0.1 µM on MKK4 is greater than 30%. In addition, the “Selectivity JNK1/MKK4” value at JNK1 was found to be 2.2. Besides, the “Selectivity MKK7/MKK4” value at MKK7 was “N/E* (PoC for JNK1 = 100)”.
Taken in the same sequence, the figures for `CCCS(=O)(=O)Nc1ccc(F)c(C(=O)c2c[nH]c3ncc(-c4ccccc4)cc23)c1F` [Example 101, N-(2,4-difluoro-3-(5-phenyl-1H-pyrrolo[2,3-b]pyridine-3-carbonyl)phenyl)propane-1-sulfonamide] were 7.2, less than 10%, 28 and “N/E* (PoC for JNK1 = 100)”.
Take `CCCS(=O)(=O)Nc1ccc(F)c(C(=O)c2c[nH]c3ncc(-c4ccc(OCOC)cc4Cl)cc23)c1F` [Example 102, N-(3-(5-(2-chloro-4-(methoxymethoxy)phenyl)-1H-pyrrolo[2,3-b]pyridine-3-carbonyl)-2,4-difluorophenyl)propane-1-sulfonamide]: on BRaf, the “Selectivity BRaf/MKK4” value amounted to 17. Moreover, on MKK4, the remaining binding at 0.1 µM is less than 10%. The “Selectivity JNK1/MKK4” value on JNK1 is “N/E* (PoC for JNK1 = 100)”. Also, the “Selectivity MKK7/MKK4” value on MKK7 is listed as “N/E* (PoC for JNK1 = 100)”.
As for `O=C(c1c(F)ccc(NS(=O)(=O)CCc2ccccc2)c1F)c1c[nH]c2ncc(-c3ccc(Cl)cc3)cc12` [Example 103, N-(3-(5-(4-chlorophenyl)-1H-pyrrolo[2,3-b]pyridine-3-carbonyl)-2,4-difluorophenyl)-2-phenylethane-1-sulfonamide], on MEKK2, the IC50 is less than 0.5 µM.
Turning to `CCCS(=O)(=O)Nc1ccc(F)c(C2(c3c[nH]c4ncc(-c5ccc(Cl)cc5)cc34)OCCO2)c1F` [Example 104, N-(3-(2-(5-(4-chlorophenyl)-1H-pyrrolo[2,3-b]pyridin-3-yl)-1,3-dioxolan-2-yl)-2,4-difluorophenyl)propane-1-sulfonamide], the IC50 on MEKK2 was greater than 10 µM.
As to `CCCS(=O)(=O)Nc1nc(C(=O)c2c[nH]c3ncc(-c4ccc(Cl)cc4)cc23)cs1` [Example 111, N-(4-(5-(4-chlorophenyl)-1H-pyrrolo[2,3-b]pyridine-3-carbonyl)thiazol-2-yl)propane-1-sulfonamide], at BRaf, the “Selectivity BRaf/MKK4” value is given as “N/E* (PoC for JNK1 = 100)”. The remaining binding at 1 µM on MKK4 was greater than 30%. Besides, the “Selectivity JNK1/MKK4” value at JNK1 is “N/E* (PoC for JNK1 = 100)”. On MKK7, the “Selectivity MKK7/MKK4” value is on record as less than 1.
In the case of `CCCS(=N)(=O)Nc1ccc(F)c(C(=O)c2c[nH]c3ncc(-c4ccc(Cl)cc4)cc23)c1F` (stereo not shown) [Example 112, N-(3-(5-(4-chlorophenyl)-1H-pyrrolo[2,3-b]pyridine-3-carbonyl)-2,4-difluorophenyl)propane-1-sulfonimidamide], the IC50 at MKK4 active is 1 to 10 µM; on MEKK2 it was greater than 10 µM.

The term IC50 denotes the midpoint of a concentration-inhibition curve.
